pIC50: −log10 of the molar value.
Tests used:
Pharmacokinetics in mice = format: in vivo, Balb/c mice; conditions: 3 mg/kg, Mouse PK (IV, 3 mpk), single injection, plasma
From the text: Objective: To evaluate the pharmacokinetic characteristics of the compounds of the present disclosure in mice.
Balb/c mice were taken, with 12 mice per group (half male and half female), randomly grouped, and administered a single injection of the sample (Formulation A: 5% DMSO + 95% (15% sulfobutyl-β-cyclodextrin-normal saline), Formulation B: 5% DMSO-10% Solutol HS 15-85% normal saline, diluted according to the dose). Blood samples were collected at crossover time points, including before administration and at 5 min, 30 min, 1 h, 2 h, 4 h, 6 h, 8 h, 10 h, and 24 h after administration. Plasma was collected, and the sample concentration in plasma was detected by LC-MS. Table 2-1. PK parameters of the compounds of the present disclosure in mice

[1] = Repeated administration toxicity experiment in rats; format: in vivo, SD rats; conditions: for Clinical observation: course after ataxia / Clinical observation: animals showed ataxia immediately after administration / Body weight / food intake / Clinical observation: died during recovery (among animals with ataxia): tail vein injection for 7 consecutive days; for Clinical observation: animals showed ataxia immediately after administration / Clinical observation: died during recovery (among animals with ataxia): main trial group + TK group; for gross dissection: lungs: gross dissection on D8 after administration; for Body weight / food intake: 0.3 mg/kg and 1.0 mg/kg, Compound 2 stated relative to Dxd at the same dose
Procedure: Test sample preparation: The test sample was weighed according to the predetermined weight into a glass vial. First, 1 mL of DMSO was added and mixed until the test sample was dissolved, followed by the addition of 1 mL of Solutol HS-15.
SD rats (purchased from Beijing Vital River) were used as test animals. […] During the acclimation period, one cage-side observation was conducted daily; during the administration period, all animals were subjected to clinical observations twice daily (morning and afternoon). Reactions in various aspects, including the skin, fur, eyes (sclera), ears, nose, oral cavity, chest, abdomen, urogenital area, limbs, as well as respiration, movement, urination, defecation (including urine and feces color), and behavioral changes, were recorded. Daily weight data of the main test group animals were documented. For animals scheduled for dissection, terminal body weight (fasted) was measured before dissection. The food intake of the test animals was also recorded.
At the end of the administration, gross dissection was performed on D8 after administration.

Pharmacokinetics in rats = format: in vivo, SD rats; conditions: 3 mg/kg, Rat PK (IV, 3 mpk), single injection, plasma, Formulation A
Procedure: Objective: To evaluate the pharmacokinetic characteristics of the compounds of the present disclosure in rats.
SD rats (purchased from Beijing Vital River Laboratory Animal Technology Co., Ltd.) were used, with 6 rats per group (half male and half female), randomly grouped. A single injection of the sample (Formulation A: 5% DMSO + 95% (15% sulfobutyl-β-cyclodextrin-normal saline), diluted according to the dose) was administered. Blood samples were collected at crossover time points: before administration and at 5 min, 30 min, 1 h, 2 h, 4 h, 6 h, 8 h, 10 h, and 24 h after administration. Plasma was collected, and the sample concentration in plasma was detected by LC-MS. Table 3-1. PK parameters of the compounds of the present disclosure in rats

[2] = system: MDA-MB-468 (human breast cancer cells); assay: In vitro antitumor activity (cell proliferation inhibition, CellTiter-Glo); format: cell-based; conditions: MDA-MB-468 cells, 48 hours of incubation
From the text: (§1) Objective: To detect the in vitro inhibitory activity of the compounds of the present disclosure against NCI-N87 (human gastric cancer cells), Calu-3 (human lung adenocarcinoma cells), MDA-MB-453 (human breast cancer cells), KPL-4 (human breast cancer cells), or MDA-MB-468 (human breast cancer cells).
(§2) Tumor cells in the logarithmic growth phase, including NCI-N87 (source: ATCC, catalog number: CRL-5822), Calu-3 (source: ATCC, catalog number: HTB-55), MDA-MB-453 (source: ATCC, catalog number: HTB-131), KPL-4 (source: Nanjing Cobioer Biosciences, catalog number: CBP60379), or MDA-MB-468 (source: ATCC, catalog number: HTB-132), were seeded into cell plates at a density of 5,000 cells/well. The cell plates were then incubated in a 37°C, 5% CO2 cell culture incubator for 12-16 hours. 100 µL of sample (starting at 10 µM, 4-fold dilution, 10 concentrations) was added to each well. After gentle shaking, the plates were placed in the incubator for further incubation. After 48 hours of incubation, 70 µL of CellTiter-Glo™ (Promega, catalog number: G7572) working solution was added, gently shaken to lyse the cells, and the plates were read on a microplate reader. The cell proliferation inhibition rate was calculated using the following formula: cell proliferation inhibition rate = (1-sample well/control well)×100%. GraphPad Prism 8.0 software was used to plot the Log value of sample concentration as the x-axis and Cytotoxicity% as the y-axis. The data were analyzed by Nonlinear regression (curve fit) to obtain the IC50 values for each sample, with specific results shown in Tables 1-1 and 1-2. Table 1-1. In vitro activity test results of the compounds of the present disclosure

[3] = system: NCI-N87 (human gastric cancer cells); assay: as above; format: cell-based; conditions: 48 hours of incubation
From the text: as §1, §2

[4] = system: MDA-MB-453 (human breast cancer cells); assay: as above; format: cell-based; conditions: MDA-MB-453 cells, 48 hours of incubation
From the text: as §1, §2

[5] = system: Calu-3 (human lung adenocarcinoma cells); assay: as above; format: cell-based; conditions: Calu-3 cells, 48 hours of incubation
From the text: as §1, §2

[6] = In vitro plasma stability; format: in vitro ADME; conditions: 37°C, 5 µM
Procedure: 398 µL of plasma was taken and preheated to 37°C, then co-incubated for 15 minutes. 2 µL of the sample solution was added to the plasma to prepare a final sample concentration of 5 µM. The above solution was co-incubated at 37°C, and 50 µL aliquots were taken at 0, 15, 30, 60, and 120 minutes, followed by the addition of 450 µL of ice-cold acetonitrile (containing the internal standard). The solution was vortexed for 10 minutes, centrifuged, and the remaining content of the parent substrate was detected by the LC-MS/MS method. For specific results, refer to Table 4-1. Table 4-1. Plasma stability of the compounds of the present disclosure

[7] = system: KPL-4 (human breast cancer cells); assay: In vitro antitumor activity (cell proliferation inhibition, CellTiter-Glo); format: cell-based; conditions: KPL4, KPL-4 cells, 48 hours of incubation
From the text: as §1, §2

[8] = in vivo, Formulation A (5% DMSO + 95% (15% sulfobutyl-β-cyclodextrin-normal saline))
[9] = in vivo, Formulation B (5% DMSO-10% Solutol HS 15-85% normal saline)
[10] = both sexes, Balb/c, Formulation A (5% DMSO + 95% (15% sulfobutyl-β-cyclodextrin-normal saline))

| SMILES | pIC50 [2] | pIC50 [3] | pIC50 [4] | pIC50 [5] | Cmax (Pharmacokinetics in mice; [9]) [ng/mL] | half-life (Pharmacokinetics in mice; [9]) [min] | Residual content of parent toxin at 120 minutes (relative to 0 minutes) ([6]; CD1 mouse plasma) [%] | Residual content of parent toxin at 120 minutes (relative to 0 minutes) ([6]; Human plasma) [%] | also measured |
| --- | --- | --- | --- | --- | --- | --- | --- | --- | --- |
| [2H]C1([2H])OC(=O)[C@](O)(CC)c2cc3n(c(=O)c21)Cc1c-3nc2cc(F)c(C)c3c2c1[C@@H](NC(=O)CO)CC3 [Compound 2] | 9.01 | 8.14 | 6.94 | 7.57 | – | – | – | – | Cmax (Pharmacokinetics in mice; [8]): 449 ng/mL; half-life (Pharmacokinetics in mice; [8]): 27.3 min; Clinical observation: course after ataxia ([1]; 0.3 mpk dose group): then gradually recovered; Clinical observation: animals showed ataxia immediately after administration ([1]; 0.3 mpk dose group): 13%; Clinical observation: course after ataxia ([1]; 1 mpk dose group): then gradually recovered; Clinical observation: animals showed ataxia immediately after administration ([1]; 1 mpk dose group): 25%; average food intake, ♀ rats ([1]; female rats, compared with the control (Dxd) group at the same dose): For ♀ rats, the average food intake in the Compound 2 group was higher than that in the control group at the same dose;; gross dissection: lungs [1]: no such pathological changes were found in any dose group; Body weight [1]: At the same dose, the effects of Compound 2 and Dxd on rat body weight and food intake were generally comparable;; food intake [1]: At the same dose, the effects of Compound 2 and Dxd on rat body weight and food intake were generally comparable;; AUC(0-inf) (Pharmacokinetics in rats; in vivo): 218 ng·h/mL; Cmax (Pharmacokinetics in rats; in vivo): 406 ng/mL; clearance (Pharmacokinetics in rats; in vivo): 235 mL/min/kg; half-life (Pharmacokinetics in rats; in vivo): 39.7 min |
| [2H]C1([2H])OC(=O)[C@](O)(CC)c2cc3n(c(=O)c21)Cc1c-3nc2cc(F)c(C)c3c2c1[C@@H](NC(=O)[C@H](O)C1CC1)CC3 [Compound 3] | 9.01 | 8.36 | 7.40 | 7.77 | 4300 | 36.4 | 104.97 | 105.54 | – |
| [2H]C1([2H])OC(=O)[C@](O)(CC)c2cc3n(c(=O)c21)Cc1c-3nc2cc(F)c(C)c3c2c1[C@@H](NC(=O)[C@@H](O)C1CC1)CC3 [Compound 4] | 9.06 | 8.39 | 7.26 | 7.71 | – | – | – | – | – |
| [2H]C1([2H])OC(=O)[C@](O)(CC)c2cc3n(c(=O)c21)Cc1c-3nc2cc(F)c(C)c3c2c1[C@@H](NC(=O)C[C@@H](C)O)CC3 [Compound 5] | 8.89 | 8.04 | 7.02 | 7.48 | 3520 | 40.4 | 96.02 | 107.73 | – |
| [2H]C1([2H])OC(=O)[C@](O)(CC)c2cc3n(c(=O)c21)Cc1c-3nc2cc(F)c(C)c3c2c1[C@@H](NC(=O)C[C@H](C)O)CC3 [Compound 6] | 8.51 | 7.87 | 6.92 | 7.33 | 2580 | 40.7 | 105.93 | 94.89 | – |
| [2H]C1([2H])OC(=O)[C@](O)(CC)c2cc3n(c(=O)c21)Cc1c-3nc2cc3c(cc2c1CCCO)OCO3 [Compound 12] | 8.77 | 8.14 | – | – | – | – | – | – | pIC50 [7]: 8.15 |
| CC[C@@]1(O)C(=O)OCc2c1cc1n(c2=O)Cc2c-1nc1cc(F)c(C)c3c1c2[C@@H](NC(=O)CO)CC3 [Dxd] | – | – | – | – | – | – | – | – | Cmax (Pharmacokinetics in mice; [10]): 521 ng/mL; half-life (Pharmacokinetics in mice; [10]): 70.2 min; Clinical observation: course after ataxia ([1]; 0.3 mpk dose group): the other rats gradually recovered; Clinical observation: animals showed ataxia immediately after administration ([1]; 0.3 mpk dose group): 31%; Clinical observation: died during recovery (among animals with ataxia) ([1]; 0.3 mpk dose group): 40%; Clinical observation: course after ataxia ([1]; 1 mpk dose group): the other rats gradually recovered; Clinical observation: animals showed ataxia immediately after administration ([1]; 1 mpk dose group): 31%; Clinical observation: died during recovery (among animals with ataxia) ([1]; 1 mpk dose group): 40%; gross dissection: lungs [1]: Focal/punctate dark red discoloration was observed in the lungs of some deceased rats; Body weight [1]: Slow weight gain/weight loss;; food intake [1]: Decreased food intake; AUC(0-inf) (Pharmacokinetics in rats; both sexes, SD): 352 ng·h/mL; Cmax (Pharmacokinetics in rats; both sexes, SD): 621 ng/mL; clearance (Pharmacokinetics in rats; both sexes, SD): 144 mL/min/kg; half-life (Pharmacokinetics in rats; both sexes, SD): 70.3 min |
